The values below come from patent US20030096379A1, “Method for producing tryptamine derivatives” (priority 2001, published 2003).

One assay concerns TrpBA and TDC1. The assay can be described thus: Coupled enzyme synthesis monitored by HPLC. It is filed as biochemical. Conditions: L-serine, PLP, pH 8.5 phosphate buffer, 37° C. As to the method:
To a solution containing L-serine (25 μmol), pyridoxal phosphate (0.05 μmol) and TrpBA (0.02 to 1.5 units, depending on the substrate), TDC1 (0.2 mL 0.6 units) and KPi buffer (0.05 mmol, pH 7.5) in a volume of 0.8 mL were added […] of 5 mM indole derivative in 20% v/v ethanol/water. The mixture was incubated at 37° C. and aliquots were quenched and analyzed as described for Example 8. In cases where tryptamine and/or tryptophan standards were not available, peaks were collected for mass spectral analysis. Electrospray mass spectral analyses were performed.
Mixtures containing indole, L-serine, PLP and TDC1 were incubated in pH 8.5 phosphate buffer, analyzing aliquots by HPLC, as described in Example 12.
The procedure used in Example 24 was carried out by substituting indole with 2-methylindole, 4-hydroxymethylindole, 5-methoxy-, 5-hydroxymethyl-, 5-methoxycarbonyl, and 5,6-dimethoxyindole.

Assay [1] addresses T1, tryptophan decarboxylase TDC1 (Camptotheca acuminata, UniProt P93082).
T1 construct: made in house; host or cells: E. coli DH5α (pKK233 plasmid from C. Nessler)
T1 sequence (P93082 1-502): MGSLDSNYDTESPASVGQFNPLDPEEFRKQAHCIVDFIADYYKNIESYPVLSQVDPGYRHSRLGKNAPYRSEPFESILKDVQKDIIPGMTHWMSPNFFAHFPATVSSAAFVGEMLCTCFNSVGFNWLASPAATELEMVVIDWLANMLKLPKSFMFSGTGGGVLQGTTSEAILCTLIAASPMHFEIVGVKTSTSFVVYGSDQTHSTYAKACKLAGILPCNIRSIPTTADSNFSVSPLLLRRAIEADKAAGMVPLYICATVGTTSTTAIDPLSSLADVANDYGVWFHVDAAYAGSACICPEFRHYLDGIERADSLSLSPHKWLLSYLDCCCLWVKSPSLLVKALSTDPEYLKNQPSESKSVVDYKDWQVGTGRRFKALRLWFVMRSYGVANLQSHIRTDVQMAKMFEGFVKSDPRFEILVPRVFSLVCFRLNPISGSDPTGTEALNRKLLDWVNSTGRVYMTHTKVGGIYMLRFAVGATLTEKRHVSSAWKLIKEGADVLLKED
The assay can be described thus: Substrate screen for tryptophan decarboxylation, TDC1. The arrangement: key: +: a clear ninhydrin-positive spot at the Rf of standard tryptophan derivatives after 16-65 h; (+): a weak spot in the product region; −: no product observed; NR: experiment not run. The format is biochemical, C. accuminata. Conditions: tryptophan derivative, PLP, pH 7.5, 37° C. The procedure: (§1) A mixture containing 1 μmole of the tryptophan derivative, 0.05 μmole of PLP and 50 μmol of L-serine in 40 mM pH 7.5 KPi buffer was warmed to 37° C., then enzyme solution was added to give a final volume of 1 mL. Aliquots (100 HL) were quenched at intervals and were evaporated in a Savant Speed-vac as in Example 6. For TLC analysis, CH2Cl2/EtOH/H2O/HOAc 49:49:1:1 was used as the solvent. The plates were visualized with short-wave UV light and ninhydrin as in Example 6.
(§2) HPLC techniques were used to monitor the decarboxylation of substituted tryptophans. Mass spectral analysis of the collected HPLC peaks was used to confirm the identity of several tryptamine derivatives, as shown in Table 5.

Assay [2] addresses T2, tryptophan decarboxylase TDC2 (Camptotheca acuminata, UniProt P93083).
T2 construct: made in house; host or cells: E. coli DH5α (pKK233 plasmid from C. Nessler)
T2 sequence (P93083 1-498): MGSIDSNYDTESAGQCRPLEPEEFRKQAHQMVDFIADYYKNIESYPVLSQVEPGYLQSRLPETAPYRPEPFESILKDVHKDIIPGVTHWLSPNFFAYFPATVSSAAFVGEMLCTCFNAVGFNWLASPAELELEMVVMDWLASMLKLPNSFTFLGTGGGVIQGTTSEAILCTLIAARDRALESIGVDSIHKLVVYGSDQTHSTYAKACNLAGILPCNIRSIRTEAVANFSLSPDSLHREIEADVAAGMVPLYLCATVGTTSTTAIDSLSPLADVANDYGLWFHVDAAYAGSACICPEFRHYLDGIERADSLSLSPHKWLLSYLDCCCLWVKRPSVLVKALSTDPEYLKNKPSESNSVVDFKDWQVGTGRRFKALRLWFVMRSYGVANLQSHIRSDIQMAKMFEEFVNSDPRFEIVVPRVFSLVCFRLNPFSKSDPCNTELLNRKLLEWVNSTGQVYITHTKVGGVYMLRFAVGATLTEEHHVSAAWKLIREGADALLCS
Briefly: Substrate screen for tryptophan decarboxylation, TDC2. The format is biochemical, C. accuminata. On the set-up: key: +: a clear ninhydrin-positive spot at the Rf of standard tryptophan derivatives after 16-65 h; (+): a weak spot in the product region; −: no product observed; NR: experiment not run. Conditions: tryptophan derivative, PLP, pH 7.5, 37° C. As to the method: as §1, §2

Assay [3] concerns the target T3, synAAAD (synthetic gene based on pkAAAD protein sequence) (Sus scrofa, UniProt P80041).
T3 construct: made in house; host or cells: E. coli (pET-15 vector)
T3 sequence (P80041 1-486): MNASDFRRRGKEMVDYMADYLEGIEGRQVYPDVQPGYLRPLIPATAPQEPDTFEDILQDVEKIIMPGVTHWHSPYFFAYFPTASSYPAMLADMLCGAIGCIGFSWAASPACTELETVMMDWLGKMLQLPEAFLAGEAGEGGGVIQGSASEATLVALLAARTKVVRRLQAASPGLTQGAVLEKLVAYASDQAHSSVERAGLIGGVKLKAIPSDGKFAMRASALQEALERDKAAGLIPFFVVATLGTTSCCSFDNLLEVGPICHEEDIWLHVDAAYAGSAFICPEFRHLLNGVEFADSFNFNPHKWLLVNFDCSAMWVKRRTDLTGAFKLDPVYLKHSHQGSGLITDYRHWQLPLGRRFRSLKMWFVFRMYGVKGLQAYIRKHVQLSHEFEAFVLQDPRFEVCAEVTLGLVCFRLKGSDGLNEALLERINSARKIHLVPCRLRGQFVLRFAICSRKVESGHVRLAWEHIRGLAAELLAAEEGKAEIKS
Briefly: Substrate screen for tryptophan decarboxylation, SynAAAD. The format is biochemical. On the set-up: key: +: a clear ninhydrin-positive spot at the Rf of standard tryptophan derivatives after 16-65 h; (+): a weak spot in the product region; −: no product observed; NR: experiment not run. Conditions: tryptophan derivative, PLP, pH 7.5, 37° C. As to the method: as §1, §2

For assay [4], the target named is T4, pig kidney aromatic amino acid decarboxylase (pkAAAD) (Sus scrofa, UniProt P80041).
T4 construct: Frozen tissue was partially thawed in lysis buffer, then it was extracted and partially purified; from tissue; host or cells: pig kidney
T4 sequence (P80041 1-486): T3 sequence (P80041 1-486)
Briefly: Substrate screen for tryptophan decarboxylation, pkAAAD. It is filed as biochemical. On the set-up: key: +: a clear ninhydrin-positive spot at the Rf of standard tryptophan derivatives after 16-65 h; (+): a weak spot in the product region; −: no product observed; NR: experiment not run. As to conditions: tryptophan derivative, PLP, pH 7.5, 37° C.

Another assay has as its target T5, TrpBA (Escherichia coli, UniProt P0A879).
T5 construct: made in house; host or cells: E. coli LMG194 (pBAD) or BL-21 (pET)
The assay can be described thus: Relative rates of tryptophan derivative synthesis by HPLC, TrpBA. The format is biochemical, E. coli. As to conditions: initial rate estimated by HPLC, indole = 100%, L-serine. As to the method: Reaction mixtures were prepared as in Example 6 and were incubated at 37° C. Aliquots (100 μL) were removed and quenched by addition of to 300 μL of 0.5 M sodium citrate, pH 3.0 in 10% v/v acetonitrile/water in 2 ml microcentrifuge tubes. Following centrifugation for 10 min at 13,000×g, the supernatants were passed through 0.45μ membrane filters prior to HPLC analysis of 20 μL of filtrate.
TnA reactions were run with L-serine as the 3-carbon substrate.

T5 sequence (P0A879 whole entry): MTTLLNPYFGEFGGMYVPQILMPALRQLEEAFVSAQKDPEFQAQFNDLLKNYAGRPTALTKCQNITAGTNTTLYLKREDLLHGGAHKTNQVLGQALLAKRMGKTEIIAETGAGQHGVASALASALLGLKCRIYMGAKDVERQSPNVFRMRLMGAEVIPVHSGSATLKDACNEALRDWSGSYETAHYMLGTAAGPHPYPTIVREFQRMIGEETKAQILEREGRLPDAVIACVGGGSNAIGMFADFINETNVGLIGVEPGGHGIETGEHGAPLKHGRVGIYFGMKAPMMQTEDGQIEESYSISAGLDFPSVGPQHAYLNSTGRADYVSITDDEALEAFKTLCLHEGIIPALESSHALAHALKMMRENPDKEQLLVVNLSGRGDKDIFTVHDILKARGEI
T5 sequence (P0A877 whole entry, further chain): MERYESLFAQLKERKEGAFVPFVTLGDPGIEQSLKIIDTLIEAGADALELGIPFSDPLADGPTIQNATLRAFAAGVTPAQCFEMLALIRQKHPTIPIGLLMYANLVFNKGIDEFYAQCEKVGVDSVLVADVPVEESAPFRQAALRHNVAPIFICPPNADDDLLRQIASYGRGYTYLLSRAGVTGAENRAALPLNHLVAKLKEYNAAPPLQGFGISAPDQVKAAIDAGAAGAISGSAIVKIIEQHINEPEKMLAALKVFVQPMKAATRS

In the case of “5-(Methoxycarbonylamino)indole [5-(methoxycarbonyl)amino-]”, in the assay with TrpBA and TDC1, the “formation of tryptophan derivative and tryptamine (HPLC peaks)” value is “a second peak representing formation of tryptamine”.
Regarding `NC(Cc1c[nH]c2cccc(F)c12)C(=O)O` (racemic) [DL-4-fluoro-trp], the “TDC1 (decarboxylation substrate screen)” value in assay [1] is given as “+”. For the same compound, the “TDC2 (decarboxylation substrate screen)” value in assay [2] is “+”. Besides, in assay [3], the “SynAAAD (decarboxylation substrate screen)” value (“SynAAAD” below) was “(+)”. In addition, the “pkAAAD (decarboxylation substrate screen)” value (“pkAAAD” for short) in assay [4] is reported as “+”.
Take `Cc1cccc2[nH]cc(CC(N)C(=O)O)c12` (racemic) [DL-4-methyl-trp]: the “TDC1 (decarboxylation substrate screen)” value in assay [1] was “+”. Besides, the “TDC2 (decarboxylation substrate screen)” value in assay [2] is recorded as “+”. Besides, the “SynAAAD” value in assay [3] is listed as “+”. The “pkAAAD” value in assay [4] is recorded as “−”.
Turning to `NC(Cc1c[nH]c2ccc(F)cc12)C(=O)O` (racemic) [DL-5-fluoro-trp], in assay [1], the “TDC1 (decarboxylation substrate screen)” value is “+”. In addition, in assay [2], the “TDC2 (decarboxylation substrate screen)” value is reported as “(+)”. Further, in assay [3], the “SynAAAD” value is on record as “(+)”. Besides, in assay [4], the “pkAAAD” value is reported as “−”.
`Cc1ccc2[nH]cc(CC(N)C(=O)O)c2c1` (racemic) [DL-5-methyl-trp]: in assay [1], the “TDC1 (decarboxylation substrate screen)” value is on record as “+”. For the same compound, the “TDC2 (decarboxylation substrate screen)” value in assay [2] was “+”. Moreover, the “SynAAAD” value in assay [3] is on record as “−”. For the same compound, the “pkAAAD” value in assay [4] is “−”.
As to `NC(Cc1c[nH]c2cc(F)ccc12)C(=O)O` (racemic) [DL-6-fluoro-trp], in assay [1], the “TDC1 (decarboxylation substrate screen)” value is reported as “−”. In assay [2], the “TDC2 (decarboxylation substrate screen)” value was “−”. For the same compound, the “SynAAAD” value in assay [3] is recorded as “−”. Moreover, the “pkAAAD” value in assay [4] is recorded as “−”.
Consider `Cc1ccc2c(CC(N)C(=O)O)c[nH]c2c1` (racemic) [DL-6-methyl-trp], for which the “TDC1 (decarboxylation substrate screen)” value in assay [1] is “+”. The “TDC2 (decarboxylation substrate screen)” value in assay [2] was “+”. For the same compound, the “SynAAAD” value in assay [3] is “(+)”. For the same compound, the “pkAAAD” value in assay [4] is recorded as “−”.
With `Cc1cccc2c(CC(N)C(=O)O)c[nH]c12` (racemic) [DL-7-methyl-trp], the “TDC1 (decarboxylation substrate screen)” value in assay [1] was “+”. The “TDC2 (decarboxylation substrate screen)” value in assay [2] is “+”. For the same compound, the “SynAAAD” value in assay [3] is “(+)”. For the same compound, the “pkAAAD” value in assay [4] is “−”.
Consider `Cc1ccc2[nH]ccc2c1` [5CH3], for which the “Relative rate (TrpBA)” value at TrpBA is on record as 0.55%.
With `N[C@@H](Cc1c[nH]c2cccc(CO)c12)C(=O)O` [L-4-(hydroxymethyl)-trp, 4-(Hydroxymethyl)-L-tryptophan], in assay [1], the “TDC1 (decarboxylation substrate screen)” value is given as “+”. Also, the “TDC2 (decarboxylation substrate screen)” value in assay [2] was “+”. In assay [3], the “SynAAAD” value is on record as “+”. For the same compound, in assay [4], the “pkAAAD” value was “(+)”.
Take `COC(=O)Nc1ccc2[nH]cc(C[C@H](N)C(=O)O)c2c1` [L-5-(methoxycarbonyl)-amino-trp, 5-(Methoxycarbonyl)amino-L-tryptophan]: the “TDC1 (decarboxylation substrate screen)” value in assay [1] is on record as “+”. Besides, the “TDC2 (decarboxylation substrate screen)” value in assay [2] is on record as “+”. For the same compound, the “SynAAAD” value in assay [3] was “+”. Further, the “pkAAAD” value in assay [4] is given as “−”.
On to `N[C@@H](Cc1c[nH]c2ccc(O)cc12)C(=O)O` [L-5-hydroxy-trp, L-5-hydroxytryptophan, reference compound], for which the “TDC1 (decarboxylation substrate screen)” value in assay [1] is reported as “+”. The “SynAAAD” value in assay [3] is reported as “+”. Besides, in assay [4], the “pkAAAD” value is given as “+”.
